From patent US9980928B2, “Hydroxy aliphatic substituted phenyl aminoalkyl ether derivatives” (PROUS INSTITUTE FOR BIOMEDICAL RESEARCH, S.A., priority 2012, dated 2018) come the findings set out here.

Several values for one entry are separate records, joined by “and”; a condition that tells them apart may be missing. Identical values can stand only once.

In general, IC50 refers to the concentration that gives 50% inhibition.

The target of data set [1] is T1, serotonin transporter (Homo sapiens, UniProt P31645).
T1 construct: expressed in transfected cells; host or cells: CHO cells
T1 sequence (P31645 whole entry): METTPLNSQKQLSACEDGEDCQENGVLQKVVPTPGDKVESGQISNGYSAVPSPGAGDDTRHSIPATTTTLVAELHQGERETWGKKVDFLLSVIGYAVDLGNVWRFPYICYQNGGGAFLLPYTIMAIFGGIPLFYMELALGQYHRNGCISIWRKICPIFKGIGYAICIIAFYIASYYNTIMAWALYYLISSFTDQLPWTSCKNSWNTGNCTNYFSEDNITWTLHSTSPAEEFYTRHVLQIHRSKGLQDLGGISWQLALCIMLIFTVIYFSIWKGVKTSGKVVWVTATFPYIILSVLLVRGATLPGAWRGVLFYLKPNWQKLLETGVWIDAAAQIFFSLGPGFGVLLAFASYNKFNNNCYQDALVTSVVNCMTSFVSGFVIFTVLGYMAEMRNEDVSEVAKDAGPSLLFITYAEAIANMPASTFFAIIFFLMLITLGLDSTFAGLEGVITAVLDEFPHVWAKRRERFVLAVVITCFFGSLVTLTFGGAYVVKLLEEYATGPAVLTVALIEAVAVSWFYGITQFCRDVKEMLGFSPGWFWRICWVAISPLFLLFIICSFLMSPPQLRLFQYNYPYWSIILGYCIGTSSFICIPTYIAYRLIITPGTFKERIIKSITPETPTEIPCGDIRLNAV
Put plainly: Serotonin transporter binding radioligand inhibition ([3H]-imipramine). Particulars: concentration 5 μM. An excerpt: The serotonin transporter removes serotonin from the synaptic deft. The serotonin transporter terminates the effects of […], enabling its reuse by the presynaptic neuron.

For data set [2], the target named is uptake of serotonin (Homo sapiens, UniProt P31645). Description: Uptake inhibition of serotonin, cellular assay. The data set is classed as cell-based. Particulars: read-out: Serotonin reuptake inhibition (IC50 μM). As to the method: The effect of the compounds of the present invention as inhibitors of the uptake of norepinephrine and serotonin in cellular assays at concentrations that range from […] to 1 nM is determined following the methods described in Galli, A. et al. J Exp Biol 1995, 198(Pt. 10): 2197-212 and Gu, H. et al. J Biol Chem. 1994, 269(10):7124-30.
Sequence of uptake of serotonin (P31645 whole entry): as above

The target in data set [3] is T2, Human dopamine transporters (Homo sapiens, UniProt Q01959).
T2 construct: expressed in transfected cells; host or cells: CHO-K1 cells (membranes)
T2 sequence (Q01959 whole entry): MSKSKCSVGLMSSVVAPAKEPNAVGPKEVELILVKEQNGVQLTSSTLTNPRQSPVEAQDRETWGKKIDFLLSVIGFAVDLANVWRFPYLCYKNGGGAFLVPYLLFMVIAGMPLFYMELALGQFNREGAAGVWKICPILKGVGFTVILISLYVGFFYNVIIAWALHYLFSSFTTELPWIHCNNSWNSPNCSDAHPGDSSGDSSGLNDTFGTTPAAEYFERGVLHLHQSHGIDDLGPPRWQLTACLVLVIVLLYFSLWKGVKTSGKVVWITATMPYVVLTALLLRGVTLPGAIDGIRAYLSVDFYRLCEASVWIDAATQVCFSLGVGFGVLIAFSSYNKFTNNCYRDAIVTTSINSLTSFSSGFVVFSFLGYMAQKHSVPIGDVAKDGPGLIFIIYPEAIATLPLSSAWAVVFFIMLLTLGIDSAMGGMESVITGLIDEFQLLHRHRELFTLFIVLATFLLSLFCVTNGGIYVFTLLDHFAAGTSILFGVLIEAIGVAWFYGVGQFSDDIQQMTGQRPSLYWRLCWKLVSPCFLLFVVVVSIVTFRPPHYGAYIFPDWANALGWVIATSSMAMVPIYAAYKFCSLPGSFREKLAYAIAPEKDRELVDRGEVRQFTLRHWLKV
Put plainly: Binding to the dopamine transporter ([125I]-RTI-55). The following applies: 10 μM; read-out: inhibitory effect on [125I]-RTI-55 binding. As to the method:
Human dopamine transporters expressed in CHO—K1 cells are used in modified Tris-HCl buffer at pH 7.4. […] Non-specific binding is estimated in the presence of […] nomifensine.

Data set [4] relates to CHO cells. Description: In vitro MTT toxicity screen. The data set is classed as cell-based, Chinese hamster. Particulars: 10 μM, compared to positive control group (10% DMSO). As to the method: The toxicity of the compounds of the present invention at a concentration of 10 μM has been explored using the tetrazolium salt (MTT) method in CHO cells. The MTT method involving conversion of MTT to colored formazan by cells serves as an indirect measurement of cell growth/cell kill, as reported by several groups (Paimela, T. et al. Mol Vis 2012; 18: 1189-96; Hansen, M. B. et al. J Immunol Methods 1989, 119(2): 203-10).
In the MTT assay, cytotoxicity is correlated with the color of MTT and is measured with a spectrophotometer at the wavelength of 570 nm. Briefly, fresh MTT solution (10 mg/mL in 1×PBS) was added (1:20 volume of medium) and the cells were incubated for 1.5 hours. The cells were lysed and purple formazan was dissolved into the solution by overnight incubation with MTT lysis buffer (20% SDS, 50% N,N-dimethylformamide, 2% acetic acid, 25 mM HCl; the volume of medium+volume of MTT salt solution).

Data set [5] has as its system mice. Put plainly: Passive avoidance test. The following applies: 30 mg/kg i.p., test phase 24 hours later. The data set is classed as in vivo. An excerpt:
The passive avoidance task is a fear-aggravated test used to evaluate learning and memory in rodent models of CNS disorders. In this test, subjects learn to avoid an environment in which an aversive stimulus (such as a footshock) was previously delivered.
The animals can freely explore the light and dark compartments of the chamber and a mild footshock is delivered in one side of the compartment. Animals eventually learn to associate certain properties of the chamber with the footshock. The latency to pass the gate in order to avoid the stimulus is used as an indicator of learning and memory. The passive avoidance task is useful for evaluating the effect of novel chemical entities on learning and memory, as well as studying the mechanisms involved in cognition (Cappon, G. D. Eur J Pharmacol. 2008 579(1-3): 225-8).
A passive avoidance test with Example 2 administered i.p. at 30 mg/kg was conducted to assess the formation of recent and long-term memory (consolidation) using a negative reinforcement (0.6 mA footshock; 2 s).

Data set [6] concerns mice. Description: Novel object recognition test (acute). The data set is classed as in vivo. An excerpt: The novel object recognition task is used to evaluate cognition, particularly memory recognition, in rodent models of CNS disorders. This test is based on the spontaneous tendency of rodents to spend more time exploring a novel object than a familiar one. The choice to explore the novel object reflects the use of learning and memory recognition. The novel object recognition test provides a measure of activity in a novel environment allowing tests for emotional reactivity and also for novel object recognition, a cognitive domain that depends on hippocampal functional integrity. Animals were habituated to the presence of two identical objects (LEGO® pieces) during a single session of 5 minutes (training) and sniffing (exploration of an object was defined as pointing the nose to the object at a distance of <1 cm and/or touching it with the nose). Mice were injected with saline or with the compound to be tested and returned to their home cages. At 24 hours the animals were introduced in the same open field again with the same two items (familiarization), and again exploration in each of them for 5 minutes was registered. One hour later, the mice were retested in the open field for 3 minutes, but this time with one of the “familiar” objects replaced by a new one (test). To analyze cognitive performance, a discrimination index was calculated as the difference in time exploring the novel and familiar object, expressed as the ratio of the total time spent exploring both objects, which made it possible to adjust for any differences in total exploration time. This test is useful for assessing impaired cognitive ability in transgenic strains of mice and evaluating novel chemical entities for their effect on cognition (Zhang, R. J Alzheimers Dis 2012, 31(4): 801-12). […] Neuroplasticity 2007, 26496).

The mark [7] stands for this setting: acute administration, test session.

`CNCCC(Oc1ccc(CCO)cc1)c1ccccc1.Cl` (single isomer, unassigned) [Example 2, 2-[4-[3-(Methylamino)-1-phenylpropoxy]phenyl]ethanol hydrochloride] showed an inhibition at 5 µM in data set [1] of 82%. Moreover, the IC50 in data set [2] was 0.328 µM and 0.348 µM. In addition, in data set [3], the inhibition at 10 µM came out at 88%. Besides, in data set [4], the “cell viability (MTT)” value is given as 100%. In addition, the “time on the platform vs saline-treated group (recent memory formation)” value in data set [5] is reported as “significantly longer time on the platform”. In addition, in data set [6] (setting [7]), the time familiar object was 24.4% and the time new object came out at 75.5%. For the same molecule, the “discrimination of the two objects vs saline group” value in data set [6] (acute conditions) was “discriminated the two objects better”.
